Experimental data taken from ChEMBL document CHEMBL5113491, “Discovery of N-benzylarylamide derivatives as novel tubulin polymerization inhibitors capable of activating the Hippo pathway” (Eur J Med Chem, 2022).
Calls of active or inactive are those of the source. No cut-off for these calls is given here.

How the values were obtained:
Tubulin (Homo sapiens) [1] = molecular target: T1, Tubulin (Homo sapiens) (UniProt P68371+Q9H4B7+P0DPH7+P68366+Q13509+Q71U36+P04350+Q3ZCM7+P07437+P68363+Q9BQE3+Q6PEY2+Q13885+Q9BVA1+Q9BUF5); assay: Induction of microtubule disruption in human SGC-7901 cells at 25 nmol/L measured after 48 hrs by DAPI staining based immunofluorescence assay; type: cell-based
Tubulin (Homo sapiens) [2] = molecular target: T1, Tubulin (Homo sapiens); assay: Induction of microtubule disruption in human MGC-803 cells measured after 48 hrs by DAPI staining based immunofluorescence assay; type: cell-based; details: dose 15-45 nmol/L, DDE = dose-dependent effect
[3] = molecular target: Tubulin beta (Homo sapiens) (UniProt P68371+Q9H4B7+Q13509+P04350+Q3ZCM7+P07437+Q13885+Q9BVA1+Q9BUF5+A6NNZ2); assay: Binding affinity to beta-tubulin colchicine binding site in human MGC-803 cells assessed as inhibition of EBI-beta-tubulin adduct band formation preincubated for 2 hrs followed by EBI addition and measured after 2 hrs by EBI competition based Western blotting analysis; type: cell-based; details: dose 1-10 µM, time 4.0 hrs, DDE = dose-dependent effect
MGC-803 [4] = assay: Induction of apoptosis in human MGC-803 cells assessed as increase in cleaved caspase 7 expression at 15 to 45 nmol/L measured after 48 hrs by Western blot analysis; type: functional, cell-based; details: dose 15-45 nmol/L
SGC-7901 [5] = assay: Inhibition of colony formation in human SGC-7901 cells measured after 7 days; type: functional, cell-based; details: dose 6-30 nmol/L, time 7.0 day, DDE = dose-dependent effect
MGC-803 [6] = assay: Induction of morphological changes in human MGC-803 cells assessed as decrease in density at 15 to 45 nmol/L measured after 48 hrs by bright field microscopic analysis; type: functional, cell-based; details: dose 15-45 nmol/L
MGC-803 [7] = assay: Induction of G2/M phase cell cycle arrest in human MGC-803 cells assessed as decrease in cyclin B1 expression at 15 to 45 nmol/L measured after 48 hrs by Western blot analysis; type: functional, cell-based; details: dose 15-45 nmol/L
HCT-116 = assay: Antiproliferative activity against human HCT-116 cells assessed as inhibition of cell growth measured after 48 hrs by MTT assay; type: functional, cell-based; details: HCT-116, 48 h
SGC-7901 [8] = assay: Activation of LATS in human SGC-7901 cells assessed as increase in LATS phosphorylation measured after 48 hrs by Western blot analysis; type: cell-based; details: filed as activator, dose 15-45 nmol/L, DDE = dose-dependent effect
Tubulin (Homo sapiens) [9] = molecular target: T1, Tubulin (Homo sapiens); assay: Induction of microtubule disruption in human SGC-7901 cells measured after 48 hrs by DAPI staining based immunofluorescence assay; type: cell-based; details: dose 15-45 nmol/L, DDE = dose-dependent effect
HUVEC = assay: Cytotoxicity against human HUVEC cells assessed as reduction in cell viability at 5 to 40 nM measured after 48 hrs by MTT assay; type: toxicity, cell-based; details: 0.04 µM, dose 5-40 nM
NCI-H520 = assay: Antiproliferative activity against human NCI-H520 cells assessed as inhibition of cell growth measured after 48 hrs by MTT assay; type: functional, cell-based; details: NCI-H520, 48 h
SGC-7901 [10] = assay: Induction of morphological changes in human SGC-7901 cells assessed as change in concentration of nuclei at 15 to 45 nmol/L measured after 48 hrs by calcein-AM/PI staining based microscopic analysis; type: functional, cell-based; details: dose 15-45 nmol/L
SGC-7901 [11] = assay: Induction of morphological changes in human SGC-7901 cells assessed as change in concentration of nuclei at 15 to 45 nmol/L measured after 48 hrs by DAPI staining based microscopic analysis; type: functional, cell-based; details: dose 15-45 nmol/L
MGC-803 [12] = assay: Induction of apoptosis in human MGC-803 cells assessed as increase in cleaved caspase 9 expression at 15 to 45 nmol/L measured after 48 hrs by Western blot analysis; type: functional, cell-based; details: dose 15-45 nmol/L
SGC-7901 [13] = assay: Antiproliferative activity against human SGC-7901 cells assessed as inhibition of cell growth measured after 48 hrs by MTT assay; type: functional, cell-based; details: SGC-7901, 48 h
MGC-803 [14] = assay: Inhibition of colony formation in human MGC-803 cells measured after 7 days; type: functional, cell-based; details: dose 6-30 nmol/L, time 7.0 day, DDE = dose-dependent effect
MGC-803 [15] = assay: Downregulation of Axl protein expression in human MGC-803 cells at 15 to 45 nmol/L measured after 48 hrs by Western blot analysis; type: functional, cell-based; details: dose 15-45 nmol/L
TE-1 = assay: Antiproliferative activity against human TE-1 cells assessed as inhibition of cell growth measured after 48 hrs by MTT assay; type: functional, cell-based; details: TE-1, 48 h
MGC-803 [16] = assay: Induction of morphological changes in human MGC-803 cells assessed as increase in proportion of dead cells at 15 to 45 nmol/L measured after 48 hrs by calcein-AM/PI staining based microscopic analysis; type: functional, cell-based; details: dose 15-45 nmol/L
MGC-803 [17] = assay: Induction of G2/M phase cell cycle arrest in human MGC-803 cells assessed as decrease in p-cdc2 (T161) expression at 15 to 45 nmol/L measured after 48 hrs by Western blot analysis; type: functional, cell-based; details: dose 15-45 nmol/L
SGC-7901 [18] = assay: Downregulation of TAZ protein expression in human SGC-7901 cells measured after 48 hrs by Western blot analysis; type: functional, cell-based; details: dose 15-45 nmol/L, DDE = dose-dependent effect
SGC-7901 [19] = assay: Induction of apoptosis in human SGC-7901 cells assessed as increase in cleaved caspase 9 expression at 15 to 45 nmol/L measured after 48 hrs by Western blot analysis; type: functional, cell-based; details: dose 15-45 nmol/L
MGC-803 [20] = assay: Induction of G2/M phase cell cycle arrest in human MGC-803 cells assessed as decrease in cyclin A1 expression at 15 to 45 nmol/L measured after 48 hrs by Western blot analysis; type: functional, cell-based; details: dose 15-45 nmol/L
SGC-7901 [21] = assay: Induction of cell apoptosis in human SGC-7901 cells assessed as increase in apoptotic cells measured after 48 hrs by Annexin V/PI staining based flow cytometric analysis; type: functional; details: dose 15-45 nmol/L, DDE = dose-dependent effect
MGC-803 [22] = assay: Activation of MST in human MGC-803 cells assessed as increase in MST phosphorylation measured after 48 hrs by Western blot analysis; type: cell-based; details: filed as activator, dose 15-45 nmol/L, DDE = dose-dependent effect
SGC-7901 [23] = assay: Induction of apoptosis in human SGC-7901 cells assessed as decrease in Bcl-xl protein expression measured after 48 hrs by Western blot analysis; type: functional, cell-based; details: dose 15-45 nmol/L, DDE = dose-dependent effect
SGC-7901 [24] = assay: Induction of cell cycle arrest in human SGC-7901 cells assessed as increase in G2/M phase cells at 45 nmol/L measured after 24 hrs by flow cytometry (reference value: 7.04%); type: functional
A549 = assay: Antiproliferative activity against human A549 cells assessed as inhibition of cell growth measured after 48 hrs by MTT assay; type: functional, cell-based; details: A549, 48 h
[25] = Induction of cell apoptosis in human MGC-803 cells assessed as increase in apoptotic cells at 45 nmol/L measured after 48 hrs by Annexin V/PI staining based flow cytometric analysis (reference value: 21.96%); type: functional
MGC-803 [26] = assay: Activation of LATS in human MGC-803 cells assessed as increase in LATS phosphorylation measured after 48 hrs by Western blot analysis; type: cell-based; details: filed as activator, dose 15-45 nmol/L, DDE = dose-dependent effect
SGC-7901 [27] = assay: Induction of apoptosis in human SGC-7901 cells assessed as decrease in c-IAP1 protein expression measured after 48 hrs by Western blot analysis; type: functional, cell-based; details: dose 15-45 nmol/L, DDE = dose-dependent effect
MGC-803 [28] = assay: Induction of cell cycle arrest in human MGC-803 cells assessed as increase in G2/M phase cells at 45 nmol/L measured after 24 hrs by flow cytometry (reference value: 19.38%); type: functional
MGC-803 [29] = assay: Induction of apoptosis in human MGC-803 cells assessed as decrease in c-IAP1 protein expression measured after 48 hrs by Western blot analysis; type: functional, cell-based; details: dose 15-45 nmol/L, DDE = dose-dependent effect
MGC-803 [30] = assay: Induction of cell cycle arrest in human MGC-803 cells assessed as increase in G2/M phase cells measured after 24 hrs by flow cytometry; type: functional, cell-based; details: dose 15-45 nmol/L, DDE = dose-dependent effect

## C/C=C/C(=O)N(Cc1ccc(OC)c(O)c1)c1cc(OC)c(OC)c(OC)c1
Tubulin (Homo sapiens) [1]
  Activity: Active
Tubulin (Homo sapiens) [2]
  Activity: Dde
[3]
  Activity: Dde
MGC-803 [4]
  Activity: Active
SGC-7901 [5]
  inhibition: Dde
MGC-803 [6]
  Activity: Active
MGC-803 [7]
  Activity: Active
HCT-116
  IC50: 55 nM
SGC-7901 [8]
  Activity: Dde
Tubulin (Homo sapiens) [9]
  Activity: Dde
HUVEC
  Activity: Non-Toxic
NCI-H520
  IC50: 52 nM
SGC-7901 [10]
  Activity: Active
SGC-7901 [11]
  Activity: Active
MGC-803 [12]
  Activity: Active
SGC-7901 [13]
  IC50: 25 nM
MGC-803 [14]
  inhibition: Dde
MGC-803 [15]
  Activity: Active
TE-1
  IC50: 94 nM
MGC-803 [16]
  Activity: Active
MGC-803 [17]
  Activity: Active
SGC-7901 [18]
  Activity: Dde
SGC-7901 [19]
  Activity: Active
MGC-803 [20]
  Activity: Active
SGC-7901 [21]
  Activity: Dde
MGC-803 [22]
  Activity: Dde
SGC-7901 [23]
  Activity: Dde
SGC-7901 [24]
  Activity: 80.89%
A549
  IC50: 59 nM
[25]
  Activity: 76.08%
MGC-803 [26]
  Activity: Dde
SGC-7901 [27]
  Activity: Dde
MGC-803 [28]
  Activity: 76.97%
MGC-803 [29]
  Activity: Dde
MGC-803 [30]
  Activity: Dde
